Measurements reported in paper PMC7050258, “Inhibition of MGAT2 modulates fat‐induced gut peptide release and fat intake in normal mice and ameliorates obesity and diabetes in ob/ob mice fed on a high‐fat diet” (FEBS Open Bio, 2020).
“And” between values parts separate entries of the source, which are not always exact repeats. Equal entries are not always repeated.

What was measured:
HFD-fed ob/ob mice = HFD-fed ob/ob mice study; format: in vivo, mouse
Procedure: Male ob/ob mice were fed an HFD (D12451; Research Diets, Inc.) from 8 weeks of age to the end of the study. After 2 weeks of HFD feeding, the mice were divided into groups based on their body weight, food intake, glycated hemoglobin (GHb), and plasma biochemical parameters. […] Compounds were suspended in 0.5% methylcellulose. Body weight and food intake were monitored during the study. On day 34, blood was collected and GHb and plasma biochemical parameters were measured. In addition, body composition was analyzed by EchoMRI‐900 (Hitachi Aloka Medical, Ltd., Tokyo, Japan). On day 36, the mice in the vehicle‐ and CpdB‐treated group were individually placed in the metabolic chamber of an Oxymax system (Columbus Instruments, Columbus, OH, USA). After 3 h of adaptation, oxygen consumption (VO2) and carbon dioxide production (VCO2) were analyzed for 22 h (from 13:00 to 11:00). During the measurement, dosing of vehicle or CpdB was performed at 18:00. Respiratory quotient (RQ) and energy expenditure (EE) were calculated with the following formulas: RQ=VCO2/VO2 EEkcal/h=3.815+1.232×VCO2/VO2×VO2
Blood samples were collected from the tail or facial vein without anesthesia and centrifuged at 1500 g for 10 min at 4 °C to isolate the plasma. To prevent degradation of incretin hormone, blood samples were treated with not only heparin/aprotinin but also a dipeptidyl peptidase‐4 (DPP‐4) inhibitor. Plasma alanine aminotransferase […] levels were measured by an Autoanalyzer 7180 (Hitachi High‐Technologies Corporation, Tokyo, Japan). GHb was measured with an automated GHb analyzer (HLC‐723G8; Tosoh, Tokyo, Japan). Plasma insulin was measured with an ELISA kit (Shibayagi Co., Ltd., Gunma, Japan). Plasma levels of total GLP‐1 and total PYY were also measured with an ELISA kit (Wako Pure Chemicals).

rats fed a 35% fat diet = tested on: rats fed a 35% fat diet; design: method as in PMID 25857225; settings: cited from earlier work
C57BL/6J mice = assay: Food choice test (HFD vs LFD); format: in vivo, mouse; settings: overnight, CpdB 10 mg/kg oral, liraglutide 0.04 mg/kg sc
Procedure: The choice between HFD (D12451; Research Diets, Inc.) and low‐fat diet (LFD, 10% kcal fat, 3.8 kcal·g^−1; D124510B; Research Diets, Inc.) was assessed in C57BL/6J mice. Following habituation to normal chow, HFD and LFD were presented in separate containers simultaneously, and overnight food intake of each diet was monitored. The mice were divided into groups based on the data of food intake and body weight. Then, vehicle or CpdB (10 mg·kg^−1) was orally administered, and the overnight food intake of each diet was monitored. CpdB was suspended in 0.5% methylcellulose. As a positive control, liraglutide (0.04 mg·kg^−1) dissolved in 10% DMSO/saline was subcutaneously administered.

rats = tested on: rats; design: method as in PMID 22301859; settings: cited from earlier work
[1] = CpdB 30 mg/kg, pioglitazone 3 mg/kg oral once daily, mean
[2] = CpdB 30 mg/kg, pioglitazone 3 mg/kg oral once daily, single animal values
[3] = EchoMRI, day 34, CpdB 30 mg/kg, pioglitazone 3 mg/kg, mean
[4] = EchoMRI, day 34, CpdB 30 mg/kg, pioglitazone 3 mg/kg, single animal values
[5] = day 34, CpdB 30 mg/kg, pioglitazone 3 mg/kg oral once daily, mean ± SD, n=8

## CCc1ccc(CCOc2ccc(CC3SC(=O)NC3=O)cc2)nc1 (stereo not shown) [Pioglitazone, pioglitazone, reference compound]
HFD-fed ob/ob mice; [1]
  Body weight change from initial, AVE: 30.48%
  Cumulative food intake, AVE: 136.37 g
HFD-fed ob/ob mice; [2]
  Body weight change from initial, individual animal: 29.04% and 29.60% and 25.91% and 30.72% and 29.56% and 32.63% and 37.29%
  Cumulative food intake, individual animal: 144.84 g and 134.34 g and 122.14 g and 143.74 g and 138.07 g and 136.64 g and 133.11 g and 138.10 g
HFD-fed ob/ob mice; [3]
  Body composition, Fat, AVE: 63.35%
  Body composition, Lean, AVE: 36.65%
HFD-fed ob/ob mice; [4]
  Body composition, Fat, individual animal: 62.74% and 63.31% and 66.38% and 62.25% and 63.50% and 61.77% and 61.53% and 65.34%
  Body composition, Lean, individual animal: 33.62% and 37.75% and 36.50% and 38.23% and 38.47% and 37.26% and 36.69%
HFD-fed ob/ob mice; before dosing, mean ± SD, n=8
  GHb, Pre: 5.9 ± 0.3%
  Plasma AST, Pre: 314 ± 61 U·L^−1
  Plasma insulin, Pre: 103 ± 29 ng/mL
HFD-fed ob/ob mice; change 34 days after repeated dosing, CpdB 30 mg/kg, pioglitazone 3 mg/kg oral once daily, mean
  ΔGHb, AVE: -1.01%
HFD-fed ob/ob mice; change 34 days after repeated dosing, CpdB 30 mg/kg, pioglitazone 3 mg/kg, single animal values
  ΔGHb, individual animal: -1.00% and -0.90% and -1.10% and -1.40% and -0.70% and -0.80%
HFD-fed ob/ob mice; [5]
  GHb, Post: 4.9 ± 0.4 %
  Plasma ALT, Post: 803 ± 132 U·L^−1
  Plasma AST, Post: 733 ± 174 U·L^−1
HFD-fed ob/ob mice; day 34, CpdB 30 mg/kg, pioglitazone 3 mg/kg oral once daily, nonfasting, mean ± SD, n=8
  Plasma insulin, Post: 30.8 ± 16 ng/mL

## CC(C)(C)c1cc(C(C)(C)C)nc(N2CCn3c(nnc3-c3ccc(OC(F)(F)F)cc3)C2)n1 [JTP‐103237]
Rats fed a 35% fat diet
  increase of plasma levels of PYY after lipid loading: enhance the increase

## Liraglutide
C57BL/6J mice; mean, N=5
  Food intake, energy intake of HFD, AVE: 6.46 kcal
  Food intake, energy intake of low-fat diet, AVE: 0.24 kcal
  Food intake, total energy intake, AVE: 6.69 kcal
C57BL/6J mice; single animal values
  Food intake, energy intake of HFD, individual animal: 6.02 kcal and 8.08 kcal and 6.16 kcal and 4.18 kcal and 7.85 kcal
  Food intake, energy intake of low-fat diet, individual animal: 0.00 kcal and 0.19 kcal and 0.34 kcal and 0.27 kcal and 0.38 kcal
  Food intake, total energy intake, individual animal: 6.02 kcal and 8.27 kcal and 6.50 kcal and 4.45 kcal and 8.23 kcal
rats
  intake of highly palatable diet: predominantly reduce the intake of highly palatable diet
